Assay in all cases: NCI tumour cell line growth inhibition, 48 h
Experiment [1] relates to NCI-H226 lung.
Experiment [2] deals with PC-3 prostate.
The test system of experiment [3] is 786-0 renal.
The subject of experiment [4] is HS 578T breast.
The test system of experiment [5] is A498 renal.
In experiment [6] the test system is SK-MEL-28 melanoma.
In experiment [7] the test system is T-47D breast.
The subject of experiment [8] is SNB-75 CNS.
Experiment [9] deals with OVCAR-4 ovarian.
In experiment [10] the test system is EKVX NSCLC.

The structures appear in SMILES notation.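 A five-concentration, 48-hour dose response in 96-well plates underlies each endpoint, interpolated linearly between surrounding concentrations. Here, GI50 denotes the concentration required for 50% inhibition of growth. TGI is the concentration that stops growth completely.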

Take `COc1ccccc1/C=N\N=C(N/N=C/c1ccccc1OC)N/N=C/c1ccccc1OC`: the GI50 was 4.08 µM in experiment [1]; 2.77 µM in experiment [2]; 3.25 µM in experiment [3]; 2.88 µM in experiment [4]; 2.73 µM in experiment [5]; 6.41 µM in experiment [6]. Also, the GI50 in experiment [7] is 3.27 µM; in [8] it was 2.72 µM; in experiment [9], 3.43 µM; in experiment [10] it was 2.68 µM. For the same compound, the TGI in experiment [1] was greater than 100 µM; in experiment [2], greater than 100 µM; in experiment [3], 67.2 µM; in experiment [4], 53.2 µM; in experiment [5], 9.92 µM; in experiment [6] it was greater than 100 µM. Further, the TGI is 9.69 µM in experiment [7], 9.4 µM in experiment [8], greater than 100 µM in experiment [9] and greater than 100 µM in [10].
In the case of `C=CC(=O)N[C@H]1CCOC[C@H]1Nc1ncc2cc(-c3c(Cl)c(OC)cc(OC)c3Cl)ccc2n1`, the GI50 was 10.7 µM in experiment [1]; 14.8 µM in [2]; 17.5 µM in experiment [3]; 17.8 µM in experiment [4]; 3.36 µM in experiment [5]; 18.3 µM in experiment [6]. Moreover, the GI50 is 7.51 µM in experiment [7], 12 µM in experiment [8], 6.05 µM in [9] and 4.31 µM in [10]. Besides, the TGI in experiment [1] is 87.2 µM; in experiment [2] it was greater than 100 µM; in experiment [3], greater than 100 µM; in experiment [4] it was greater than 100 µM; in experiment [5], 33.7 µM; in [6] it was 80.2 µM. The TGI in experiment [7] was 85.5 µM; in experiment [8], greater than 100 µM; in experiment [9] it was greater than 100 µM; in [10], 94.3 µM.
Take `c1cn2cc(-c3ccc4cn[nH]c4c3)nc(Nc3ccc(N4CCOCC4)cc3)c2n1`: the GI50 in experiment [1] was 4.82 µM; in experiment [2], 14.7 µM; in experiment [3] it was 14.9 µM; in experiment [4], 11.1 µM; in [5], 11.9 µM; in [6], 13 µM. In addition, the GI50 was 12 µM in experiment [7], 1.46 µM in experiment [8], 7.78 µM in [9] and 14.8 µM in experiment [10]. The TGI in experiment [1] was determined as 24.6 µM; in experiment [2] it was 35.4 µM; in [3], 32 µM; in [4], 63.8 µM; in experiment [5], 36.2 µM; in [6] it was 40.5 µM. For the same compound, the TGI in experiment [7] was 30.9 µM; in [8], 13.3 µM; in experiment [9], 36.2 µM; in experiment [10], 41.8 µM.
On to `COc1cc(/C=C2\CN(C)C/C(=C\c3cc(CN4CCCCC4)c(O)c(OC)c3)C2=O)cc(CN2CCCCC2)c1O`, for which the GI50 is 10.5 µM in experiment [1]; 4.36 µM in experiment [2]; 3.92 µM in experiment [3]; 3.27 µM in experiment [4]; 10.1 µM in experiment [5]; 11.6 µM in [6]. Also, the GI50 is 5.72 µM in experiment [7], 1.99 µM in experiment [8], 4.77 µM in experiment [9] and 4.57 µM in experiment [10]. The TGI amounted to 25.9 µM in experiment [1]; 26.2 µM in [2]; 14.5 µM in experiment [3]; 80.6 µM in experiment [4]; 22.7 µM in experiment [5]; 24.5 µM in [6]. The TGI in [7] was determined as 24 µM; in experiment [8], 9.13 µM; in [9], 54.1 µM; in [10] it was 17.6 µM.
For `COc1ccc(/C=C\c2cc(OC)c(OC)c(OC)c2)cc1OC(=O)CCC(=O)O`, the TGI was less than 0.0001 µM in experiment [1]; greater than 100 µM in experiment [2]; greater than 100 µM in experiment [3]; greater than 100 µM in experiment [4]; greater than 100 µM in experiment [6]; 97.1 µM in experiment [7]. Further, the TGI in experiment [8], in [9] and in experiment [10] was greater than 100 µM in each case. Further, the GI50 in experiment [3] was 0.0121 µM; in [5] it was less than 0.0001 µM; in experiment [10] it was 51.5 µM.
With `CC(=O)OC1CC2(O)C3CCC4CC(O)CCC4(C)C3CCC2(C)C1C1=CC(=O)OC1` (configuration not stated), the TGI in experiment [1] was 0.784 µM; in [2], 0.373 µM; in experiment [3] it was 0.107 µM; in experiment [4] it was greater than 100 µM; in [5], 0.392 µM; in experiment [6], 0.654 µM. In addition, the TGI in [7] was 0.73 µM; in experiment [8], 0.618 µM; in experiment [9] it was 0.19 µM; in experiment [10], 0.159 µM.
As for `C=C1C(=O)O[C@H]2[C@H]1CC/C(COC(=O)NCCc1c[nH]c3ccc(OC)cc13)=C\CC[C@@]1(C)O[C@@H]21`, the GI50 was 1.88 µM in experiment [1]; 1.99 µM in [2]; 1.46 µM in experiment [3]; 6.42 µM in [4]; 10.5 µM in experiment [5]; 1.65 µM in [6]. The GI50 in [7] was 1.81 µM; in experiment [8] it was 10 µM; in [9] it was 1.69 µM; in experiment [10], 1.94 µM. The TGI in experiment [1] came to 3.61 µM; in experiment [2] it was 4.6 µM; in [3], 3.47 µM; in experiment [4] it was 36.9 µM; in experiment [5] it was 22.7 µM; in experiment [6] it was 3.22 µM. Moreover, the TGI came out at 4.53 µM in experiment [7], 21.7 µM in experiment [8], 5.09 µM in experiment [9] and 5.45 µM in experiment [10].
For the compound `C/C(=N\N=C(/[Se])N1CC2CCC(CC2)C1)c1ccccn1`, the TGI in experiment [1] came out at 1.88 µM; in experiment [2], 1.26 µM; in [3], 2.52 µM; in experiment [4] it was 7.77 µM; in experiment [5], 1.31 µM; in experiment [6] it was 1.03 µM. For the same compound, the TGI in [7] is 3.05 µM; in [8] it was 1.11 µM; in experiment [9], 2.56 µM; in experiment [10], 2.06 µM.
As to `Cc1ccc(SC2=CC(=O)c3nc4ccccc4c4ccnc2c34)cc1`, the GI50 is greater than 61.9 µM in experiment [1]; 22 µM in [2]; 24.5 µM in experiment [3]; 43.8 µM in experiment [4]; greater than 100 µM in experiment [5]; greater than 100 µM in experiment [6]. The GI50 in experiment [7] was 24.3 µM; in experiment [8] it was 39.8 µM; in experiment [9], 17.4 µM; in [10], 35 µM. The TGI in experiment [1] is greater than 100 µM; in experiment [2] it was 71.2 µM; in experiment [3], greater than 58.1 µM; in experiment [4] it was greater than 95 µM; in experiment [5], greater than 100 µM; in experiment [6] it was greater than 100 µM. Moreover, the TGI in [7] is 47.2 µM; in experiment [8], greater than 100 µM; in experiment [9], 32.6 µM; in experiment [10] it was greater than 100 µM.

These data come from PubChem BioAssay (NCI).
